ChEMBL document CHEMBL4325859, “Research advances on anticancer activities of matrine and its derivatives: An updated overview” (Eur J Med Chem, 2019)
pIC50: −log10 of the molar value. ≈ marks a conversion by molar mass, not a printed value.

What was measured:
D341 cell line [1] = test: Growth inhibition of human D341 cells at 2 mg/ml after 24 hrs by CCK8 assay relative to control; assay type: functional; details: D341, 24 h, read-out: GI
[2] = Growth inhibition of human MM1R cells after 24 hrs; assay type: functional; details: MM.1R
[3] = Growth inhibition of human GRC1 cells at 0.5 g/L after 72 hrs by MTT assay relative to control; assay type: functional; details: read-out: GI
MG-63 [4] = test: Growth inhibition of human MG63 cells at 0.8 mg/ml after 48 hrs by MTT assay relative to control; assay type: functional; details: MG-63, 48 h, read-out: GI
CCRF-CEM = test: Antiproliferative activity against human CCRF-CEM cells after 24 hrs by WST1 assay; assay type: functional, cell-based
NIH3T3 = test: Antiproliferative activity against mouse NIH/3T3 cells after 72 hrs by MTT assay; assay type: cell-based; details: NIH3T3, 72 h
HT-29 [5] = test: Synergistic growth inhibition of human HT-29 cells at 1 mg/ml cotreated with 5 ug/ml irinotecan by MTT assay relative to control; assay type: functional
[6] = Growth inhibition of human GRC1 cells at 0.8 g/L after 96 hrs by MTT assay relative to control; assay type: functional; details: read-out: GI
DU-145 = test: Growth inhibition of human DU145 cells at 6 g/L after 72 hrs relative to control; assay type: functional; details: DU-145, 72 h, read-out: GI
MM1.S = test: Growth inhibition of human MM1S cells after 24 hrs; assay type: functional, cell-based
MCF7 [7] = test: Antiproliferative activity against human MCF7 cells after 24 hrs relative to control; assay type: functional
5637 = test: Antiproliferative activity against human 5637 cells after 48 hrs by CCK8 assay; assay type: functional, cell-based; details: Homo sapiens, 5637, 48 h
HT-29 [8] = test: Synergistic growth inhibition of human HT-29 cells at 0.25 mg/ml cotreated with 1.25 ug/ml irinotecan by MTT assay relative to control; assay type: functional
[9] = Growth inhibition of human GRC1 cells at 0.3 g/L after 96 hrs by MTT assay relative to control; assay type: functional; details: read-out: GI
LoVo [10] = test: Antiproliferative activity against human LoVo cells after 72 hrs by MTT assay; assay type: functional, cell-based
LoVo [11] = test: Antiproliferative activity against human LoVo cells after 24 hrs by MTT assay; assay type: functional, cell-based
MCF7 [12] = test: Antiproliferative activity against human MCF7 cells after 48 hrs by MTT assay; assay type: functional, cell-based; details: MCF7, 48 h
LoVo [13] = test: Antiproliferative activity against human LoVo cells after 48 hrs by MTT assay; assay type: functional, cell-based
UMR108 [14] = test: Growth inhibition of rat UMR108 cells assessed as cell proliferation at 0.5 mg/ml after 24 hrs by MTT assay (reference value: 0.405 +/- 0.007%); assay type: functional; details: UMR108, 24 h, read-out: Activity
KYSE-150 cell line = test: Antiproliferative activity against human KYSE-150 cells after 24 hrs by MTT assay; assay type: functional, cell-based; details: KYSE-150, 24 h
HT-29 [15] = test: Growth inhibition of human HT-29 cells at 8 ml/L after 24 hrs by MTT assay relative to control; assay type: functional
RPMI-8226 = test: Growth inhibition of human RPMI8226 cells at 1500 mg/L after 48 hrs by MTT assay relative to control; assay type: functional; details: RPMI-8226, 48 h, read-out: GI
U2OS [16] = test: Growth inhibition of human U2OS cells after 48 hrs by MTT assay; assay type: functional, cell-based
[17] = Growth inhibition of human GRC1 cells at 0.5 g/L after 96 hrs by MTT assay relative to control; assay type: functional; details: read-out: GI
[18] = Growth inhibition of human GRC1 cells at 1.5 g/L after 24 hrs by MTT assay relative to control; assay type: functional; details: read-out: GI
SGC-7901 = test: Induction of apoptosis in human SGC7901 cells at 30 mg/ml after 48 hrs by propidium iodide staining based flow cytometry (reference value: 3.54 +/- 0.47%); assay type: functional
HT-29 [19] = test: Growth inhibition of human HT-29 cells at 0.25 mg/ml by MTT assay relative to control; assay type: functional; details: read-out: GI
[20] = Growth inhibition of human GRC1 cells at 1 g/L after 24 hrs by MTT assay relative to control; assay type: functional; details: read-out: GI
PC-3 = test: Growth inhibition of human PC3 cells at 6 g/L after 72 hrs relative to control; assay type: functional; details: PC-3, 72 h, read-out: GI
RD = test: Induction of apoptosis in human RD cells at 1.5 mg/ml after 24 hrs by Annexin V-FITC/propidium iodide staining based flow cytometry relative to control; assay type: functional
U-937 = test: Antiproliferative activity against human U937 cells after 24 hrs by MTT assay; assay type: functional, cell-based; details: U-937, 24 h
D341 cell line [21] = test: Growth inhibition of human D341 cells at 2 mg/ml after 48 hrs by CCK8 assay relative to control; assay type: functional; details: D341, 48 h, read-out: GI
C-33-A = test: Induction of apoptosis in human C33A cells at 50 ug/ml after 48 hrs by Annexin V-FITC/propidium iodide staining based flow cytometry relative to control; assay type: functional
U2OS [22] = test: Growth inhibition of human U2OS cells at 0.8 mg/ml after 48 hrs by MTT assay relative to control; assay type: functional; details: read-out: GI
HepG2 [23] = test: Antiproliferative activity against human HepG2 cells by MTT assay; assay type: functional, cell-based
UMR108 [24] = test: Growth inhibition of rat UMR108 cells assessed as cell proliferation at 0.5 mg/ml after 72 hrs by MTT assay (reference value: 0.403 +/- 0.009%); assay type: functional; details: UMR108, 72 h, read-out: Activity
SAOS-2 [25] = test: Growth inhibition of human Saos2 cells at 0.8 mg/ml after 48 hrs by MTT assay relative to control; assay type: functional; details: SAOS-2, 48 h, read-out: GI
SMMC-7721 = test: Antiproliferative activity against human SMMC7721 cells at 5 ug/ml after 72 hrs by MTT assay relative to control; assay type: functional
MG-63 [26] = test: Growth inhibition of human MG63 cells after 48 hrs by MTT assay; assay type: functional, cell-based; details: MG-63, 48 h
EJ = test: Antiproliferative activity against human EJ cells after 48 hrs by CCK8 assay; assay type: functional, cell-based
[27] = Growth inhibition of human GRC1 cells at 0.3 g/L after 24 hrs by MTT assay relative to control; assay type: functional; details: read-out: GI
SAOS-2 [28] = test: Growth inhibition of human Saos2 cells after 48 hrs by MTT assay; assay type: functional, cell-based; details: SAOS-2, 48 h
HepG2 [29] = test: Induction of apoptosis in human HepG2 cells at 1 mg/ml by Annexin V-FITC/propidium iodide staining based flow cytometry (reference value: 0.14%); assay type: functional
A549 = test: Antiproliferative activity against human A549 cells at 1 mg/ml relative to control; assay type: functional
PANC-1 = test: Induction of apoptosis in human PANC1 cells at 1.25 mg/ml by flow cytometry (reference value: 4.13%); assay type: functional
HT-29 [30] = test: Growth inhibition of human HT-29 cells at 16 ml/L after 36 hrs by MTT assay relative to control; assay type: functional
[31] = Growth inhibition of human GRC1 cells at 1 g/L after 96 hrs by MTT assay relative to control; assay type: functional; details: read-out: GI

## O=C1CCC[C@@H]2[C@H]3CCCN4CCC[C@@H](CN12)[C@@H]34 [MATRINE]
D341 cell line [1]
  inhibition of growth at 2000 µg/mL: 38%
[2]
  pIC50: 2.27
[3]
  inhibition of growth at 500 µg/mL: 21.9%
MG-63 [4]
  inhibition of growth at 800 µg/mL: 20%
CCRF-CEM
  pIC50: 1.93
NIH3T3
  pIC50: < 2.09
HT-29 [5]
  growth inhibition (GI): 87.61%
[6]
  inhibition of growth at 800 µg/mL: 36.2%
DU-145
  inhibition of growth at 6000 µg/mL: 90%
MM1.S
  pIC50: 2.31
MCF7 [7]
  Activity: 6.01 - 37.01%
5637
  pIC50: 2.35
HT-29 [8]
  growth inhibition (GI): 31.08%
[9]
  inhibition of growth at 300 µg/mL: 18.4%
LoVo [10]
  pIC50: 2.78
LoVo [11]
  pIC50: 2.33
MCF7 [12]
  IC50: 721 µg/mL (≈ 2900 µM)
LoVo [13]
  pIC50: 2.53
UMR108 [14]
  growth at 500 µg/mL: 0.324%
KYSE-150 cell line
  pIC50: 2.11
HT-29 [15]
  growth inhibition (GI): 45.96%
RPMI-8226
  inhibition of growth at 1500 µg/mL: 39.4%
U2OS [16]
  pIC50: 2.14
[17]
  inhibition of growth at 500 µg/mL: 22.4%
[18]
  inhibition of growth at 1500 µg/mL: 31.6%
SGC-7901
  Activity: 12.89%
HT-29 [19]
  inhibition of growth at 250 µg/mL: 12.2%
[20]
  inhibition of growth at 1000 µg/mL: 23.6%
PC-3
  inhibition of growth at 6000 µg/mL: 90%
RD
  Activity: 40.1%
U-937
  pIC50: 5.63
D341 cell line [21]
  inhibition of growth at 2000 µg/mL: 47.2%
C-33-A
  Activity: 15.37%
U2OS [22]
  inhibition of growth at 800 µg/mL: 10%
HepG2 [23]
  pIC50: 2.09
UMR108 [24]
  growth at 500 µg/mL: 0.228%
SAOS-2 [25]
  inhibition of growth at 800 µg/mL: 10%
SMMC-7721
  Activity: 3%
MG-63 [26]
  pIC50: 2.15
EJ
  pIC50: 2.29
[27]
  inhibition of growth at 300 µg/mL: 6.3%
SAOS-2 [28]
  pIC50: 2.37
HepG2 [29]
  Activity: 34.36%
A549
  Activity: 52.68%
PANC-1
  Activity: 42.55%
HT-29 [30]
  growth inhibition (GI): 68.29%
[31]
  inhibition of growth at 1000 µg/mL: 45.8%
